How the values were obtained:
naïve human CD8 T cells = assay: Human CD8 T Cells IFN-γ Assay; assay type: cell-based; conditions: anti-CD3 + anti-CD28, 20 h, normalized to 3 μM reference compound, read-out: HuCD8 INFG Normalized EC50
Protocol: 7. Human CD8 T Cells IFN-γ Assay
Frozen naïve human CD8 T cells were thawed in AIM-V media, incubated for 2 h in 37 °C, and counted. The 384-well tissue culture plate was coated overnight at 4 °C with 20 μL anti-human CD3 at […] in PBS, which was removed off the plate before 40,000 cells per 40 microliters CD8 T cells with 0.1 μg/mL soluble anti-human CD28 were added to each well. The compounds were transferred using an Echo liquid handler to the cell plate immediately after the cells were plated. After 20 h incubation at 37 °C incubator, 3 microliters per well supernatants transferred into a new 384-well white assay plate for cytokine measurement.
Interferon-γ (IFN-γ) was quantitated using the AlphLISA kit (Cat #AL217) as described by the manufacturer manual (Perkin Elmer). The counts from each well were converted to IFN-γ concentration (pg/mL).

[1] = system: OT-1 CD8+ T cells with MC38 tumor cells; assay: Murine Cytotoxic T Lymphocyte Assay (IFN-γ); assay type: cell-based, mouse; conditions: OT-1 CTL with SIINFEKL-pulsed MC38 cells, 24 h; read-out: msCTL INFg IC50
From the text: 5. Murine Cytotoxic T Lymphocyte Assay
An antigen-specific cytolytic T-cell (CTL) assay was developed to evaluate functionally the ability of DGKα and DGKζ inhibitors to enhance effector T cell mediated tumor cell killing activity. CD8^+ T-cells isolated from the OT-1 transgenic mouse recognize antigen presenting cells, MC38, that present the ovalbumin derived peptide […]. Recognition of the cognate antigen initiates the cytolytic activity of the OT-1 antigen-specific CD8+ T cells.
Functional CTL cells were generated as follows: OT-1 splenocytes from 8-12 week old mice were isolated and expanded in the presence of the […] peptide at 1 μg/mL and mIL2 at 10 U/mL. After three days, fresh media with […] was added. On day 5 of the expansion, the CD8+ T cells were isolated and ready for use. Activated CTL cells may be stored frozen for 6 months. Separately, one million MC38 tumor cells were pulsed with 1 μg/mL of […]-OVA peptide for 3 hours at 37 °C. The cells were washed (3×) with fresh media to remove excess peptide. Finally, CTL cells that were pretreated with DGK inhibitors for 1 hour in a 96-well U bottom plate were combined with the antigen loaded MC38 tumor cells at a 1:10 ratio. The cells were then spun at 700 rpm for 5 min and placed in an incubator overnight at 37 °C After 24 hours, the supernatant was collected for analysis of IFN-γ cytokine levels by AlphaLisa purchased from Perkin Elmer.

Human venous whole blood = assay: Human Whole Blood IFN-γ Assay; assay type: cell-based; conditions: anti-CD3 + anti-CD28, 24 h, normalized to 3 μM reference compound, read-out: INFg Whole Blood Normalized-Agonist EC50
Protocol: 9. Human Whole Blood IFN-γ Assay
Human venous whole blood (22.5 μL per well), obtained from healthy donors, was pre-treated with compounds for one hour at 37 °C in a humidified 95% air/5% CO2 incubator. The blood was stimulated with 2.5 μL anti-human CD3 and anti-CD28 mAb at a final concentration of 1 μg/mL each for 24 hours at 37 °C. IFN-γ in the supernatants was measured using AlphLISA kit (Cat #AL217).

SMILES	EC50 (naïve human CD8 T cells) [nM]	EC50 [1] [nM]	EC50 (Human venous whole blood) [nM]
COC(=O)C1CN(c2cc(=O)n(C)c3ccc(C#N)nc23)CCN1C(c1ccc(F)cc1)c1ccc(F)cc1 (centres unmarked) [Compound 2, Methyl 1-(bis(4-fluorophenyl)methyl)-4-(6-cyano-1-methyl-2-oxo-1,2-dihydro-1,5-naphthyridin-4-yl)piperazine-2-carboxylate]	62	64	520
C[C@@H]1CN(c2c(C#N)c(=O)n(C)c3ccc(C#N)nc23)CCN1C(c1ccc(F)cc1)c1ccc(F)cc1 [Compound 4, (R)-8-(4-(bis(4-fluorophenyl)methyl)-3-methylpiperazin-1-yl)-5-methyl-6-oxo-5,6-dihydro-1,5-naphthyridine-2,7-dicarbonitrile]	17	43	400
C[C@@H]1CN(c2cc(=O)n(C)c3ccc(C#N)nc23)[C@@H](C)CN1C(c1ccccc1)c1ccc(F)cc1 (stereo partly drawn) [Compound 5, 8-[(2S,5R)-4-[(4-fluorophenyl) (phenyl)methyl]-2,5-dimethylpiperazin-1-yl]-5-methyl-6-oxo-5,6-dihydro-1,5-naphthyridine-2-carbonitrile]	30	–	680
COc1ccc2c(n1)c(N1C[C@@H](C)N(C(c3ccc(F)cc3)c3ccc(Cl)cc3)C[C@@H]1C)cc(=O)n2C (stereo partly drawn) [Compound 8, 4-[(2S,5R)-4-[(4-chlorophenyl)(4-fluorophenyl)methyl]-2,5-dimethylpiperazin-1-yl]-6-methoxy-1-methyl-1,2-dihydro-1,5-naphthyridin-2-one]	12000	–	–
C[C@@H]1CN(c2cc(=O)n(C)c3ccc(C#N)nc23)[C@@H](C)CN1Cc1ccc(F)cc1C(F)F [Compound 9, 8-[(2S,5R)-4-{[2-(difluoromethyl)-4-fluorophenyl]methyl}-2,5-dimethylpiperazin-1-yl]-5-methyl-6-oxo-5,6-dihydro-1,5-naphthyridine-2-carbonitrile]	170	–	1500
Cc1ccc(C(c2ccc(F)cc2)N2C[C@H](C)N(c3cc(=O)n(C)c4ccc(C#N)nc34)C[C@H]2C)cc1 (stereo partly drawn) [Compound 10, 8-[(2S,5R)-4-[(4-fluorophenyl)(4-methylphenyl)methyl]-2,5-dimethylpiperazin-1-yl]-5-methyl-6-oxo-5,6-dihydro-1,5-naphthyridine-2-carbonitrile]	23	32	440
CC(c1c(F)cccc1F)N1C[C@H](C)N(c2cc(=O)n(C)c3ccc(C#N)nc23)C[C@H]1C (stereo partly drawn) [Compound 11, 8-[(2S,5R)-4-[1-(2,6-difluorophenyl)ethyl]-2,5-dimethylpiperazin-1-yl]-5-methyl-6-oxo-5,6-dihydro-1,5-naphthyridine-2-carbonitrile]	22	–	650
CCC(c1ccc(F)cc1F)N1C[C@H](C)N(c2cc(=O)n(C)c3ccc(C#N)nc23)C[C@H]1C (stereo partly drawn) [Compound 12, 8-((2S,5R)-4-(1-(2,4-difluorophenyl)propyl)-2,5-dimethylpiperazin-1-yl)-5-methyl-6-oxo-5,6-dihydro-1,5-naphthyridine-2-carbonitrile]	48	–	440
Cc1ccc(C(c2ccc(C)cc2)N2C[C@H](C)N(c3cc(=O)n(C)c4ccc(C#N)nc34)C[C@H]2C)cc1 [Compound 16, 8-[(2S,5R)-4-[bis(4-methylphenyl)methyl]-2,5-dimethylpiperazin-1-yl]-5-methyl-6-oxo-5,6-dihydro-1,5-naphthyridine-2-carbonitrile]	9.5	72	520
CCC(c1ccc(C(F)(F)F)cc1)N1C[C@H](CC)N(c2nc(=O)n(C)c3ccc(C#N)nc23)C[C@H]1CC (stereo partly drawn) [Compound 18, 4-((2S,5R)-2,5-Diethyl-4-(1-(4-(trifluoromethyl)phenyl)propyl)piperazin-1-yl)-1-methyl-2-oxo-1,2-dihydropyrido[3,2-d]pyrimidine-6-carbonitrile]	–	–	3750
CC[C@@H]1CN(c2nc(=O)n(C)c3ccc(C#N)nc23)[C@@H](C)CN1C(C)c1ccc(C(F)(F)F)cc1 (stereo partly drawn) [Compound 19, 4-((2S,5R)-5-Ethyl-2-methyl-4-(1-(4-(trifluoromethyl)phenyl)ethyl)piperazin-1-yl)-1-methyl-2-oxo-1,2-dihydropyrido[3,2-d]pyrimidine-6-carbonitrile]	–	–	520
CC[C@@H]1CN(c2nc(=O)n(C)c3ccc(C#N)nc23)[C@@H](C)CN1C(C)c1ccc(C(F)(F)F)cc1 (stereo partly drawn) [Compound 20, 4-((2S,5R)-5-Ethyl-2-methyl-4-(1-(4-(trifluoromethyl)phenyl)ethyl)piperazin-1-yl)-1-methyl-2-oxo-1,2-dihydropyrido[3,2-d]pyrimidine-6-carbonitrile]	–	–	32
CC[C@@H]1CN(c2nc(=O)n(C)c3ccc(C#N)nc23)[C@@H](C)CN1C(c1ccc(F)cc1)c1ccc(C(F)(F)F)cn1 (stereo partly drawn) [Compound 21, 4-((2S,5R)-5-Ethyl-4-((4-fluorophenyl)(5-(trifluoromethyl)pyridin-2-yl)methyl)-2-methylpiperazin-1-yl)-1-methyl-2-oxo-1,2-dihydropyrido[3,2-d]pyrimidine-6-carbonitrile]	–	–	43
CC[C@@H]1CN(c2nc(=O)n(C)c3ccc(C#N)nc23)[C@@H](C)CN1C(c1ccc(F)cc1)c1ccc(C(F)(F)F)cn1 (stereo partly drawn) [Compound 22, 4-((2S,5R)-5-Ethyl-4-((4-fluorophenyl)(5-(trifluoromethyl)pyridin-2-yl)methyl)-2-methylpiperazin-1-yl)-1-methyl-2-oxo-1,2-dihydropyrido[3,2-d]pyrimidine-6-carbonitrile]	–	–	20
CC[C@@H]1CN(c2nc(=O)n(C)c3ccc(C#N)nc23)[C@@H](C)CN1C(c1ccc(Cl)cc1)c1ccccn1 (some centres unmarked) [Compound 23]	–	–	10500
CC[C@@H]1CN(c2nc(=O)n(C)c3ccc(C#N)nc23)[C@@H](C)CN1C(c1ccc(Cl)cc1)c1ccccn1 (some centres unmarked) [Compound 24]	–	–	200
CC[C@H]1CN(C(c2ccc(F)cc2)c2nc(C3CC3)no2)[C@H](CC)CN1c1nc(=O)n(C)c2ccc(C#N)nc12 (some centres unmarked) [Compound 25]	–	–	15
CC[C@H]1CN(C(c2ccc(F)cc2)c2nc(C3CC3)no2)[C@H](CC)CN1c1nc(=O)n(C)c2ccc(C#N)nc12 (some centres unmarked) [Compound 26]	–	–	90
C[C@@H]1CN(c2nc(=O)n(C)c3ccc(C#N)nc23)[C@@H](C)CN1C(c1ccc(F)cc1)c1ccc(C(F)(F)F)cn1 (stereo partly drawn) [Compound 28, 4-((2S,5R)-4-((4-fluorophenyl)(5-(trifluoromethyl)pyridin-2-yl)methyl)-2,5-dimethylpiperazin-1-yl)-1-methyl-2-oxo-1,2-dihydropyrido[3,2-d]pyrimidine-6-carbonitrile]	–	–	240
CCC[C@@H]1CN(c2nc(=O)n(C)c3ccc(C#N)nc23)[C@@H](C)CN1C(C)c1ccc(C(F)(F)F)cc1 (stereo partly drawn) [Compound 33, 1-Methyl-4-((2S,5R)-2-methyl-5-propyl-4-(1-(4-(trifluoromethyl)phenyl)ethyl)piperazin-1-yl)-2-oxo-1,2-dihydropyrido[3,2-d]pyrimidine-6-carbonitrile]	–	–	20000
